Results on one sequence are retold here after paper PMC10707071, “Characterization of the Novel Leaderless Bacteriocin, Bawcin, from Bacillus wiedmannii” (International Journal of Molecular Sciences, 2023).

No end group written: not given here.

For data set [1], the system named is Listeria monocytogenes ATCC 19115. It counts as cell-based. The procedure: (§1) The MIC of bawcin against each bacterial strain was determined using the spot-on-lawn assay as described previously with modifications. A Mueller Hinton (MH) double-agar plate was prepared by pouring 5 mL of 0.75% MH agar inoculated with 50 µL of 0.10 OD625 bacterial suspension onto 20 mL of dried 1.5% MH agar. Bawcin diluted with sterile water to 128, 64, 32, 16, 8, 4, 2, and 1 µM was spotted in 10 µL aliquots onto the top agar layer, along with 10 µL of an antibiotic positive control (ampicillin or kanamycin) and sterile water negative control. Plates were incubated at 37 °C for 16–20 h and the MIC was identified as the lowest concentration in which a zone of inhibition was observed, where partial bacterial growth within the zone of inhibition was considered HR. Assays were performed in triplicate.

Data set [2] has as its system Micrococcus luteus (Ward’s 85W 0966). It counts as cell-based. How it is done: as §1
In data set [3] the test system is Lactococcus lactis ssp. lactis (Ward’s 85W 1774). It counts as cell-based. How it is done:
as §1

In data set [4] the test system is Enterococcus faecalis (Ward’s 85W 1100). Format: cell-based. How it is done:
as §1

Data set [5] relates to Lactobacillus casei (Ward’s 85W 1682). It counts as cell-based. How it is done:
as §1

Data set [6] deals with Lactobacillus delbruekii ssp. bulgaricus (VWR 470179-126). It counts as cell-based. The procedure: as §1
Data set [7] concerns Bacillus cereus (Ward’s 85W 0200). It counts as cell-based. The procedure: as §1
Data set [8] relates to Staphylococcus aureus ATCC 6538. It counts as cell-based. How it is done:
as §1

The test system of data set [9] is Bacillus subtilis (Ward’s 85W 1650). Format: cell-based. The procedure:
as §1

The next data set deals with T1, papain (Carica papaya, UniProt P00784).
T1 construct: purchased Scholar Chemistry
The data set is described as follows: Protease sensitivity testing (residual activity by spot-on-lawn assay). Format: in vitro ADME. The following applies: spot-on-lawn against M. luteus, triplicate. How it is done: as §1
(§2) Protease stability testing was evaluated as described previously with modification. Papain (Scholar Chemistry, Rochester, NY, USA), pepsin (Northwest Scientific, Billings, MT, USA), trypsin (Sigma-Aldrich, Burlington, MA, USA), alpha-chymotrypsin (Worthington, Lakewood, NJ, USA), and proteinase K (Fisher Scientific, Ottawa, ON, Canada) were prepared to a final concentration of 1 mg/mL in 50 mM phosphate buffer adjusted to pH 2 (pepsin), 6 (papain), and 8 (proteinase K, trypsin, alpha-chymotrypsin). Bawcin was combined with each protease to final concentrations of 1×, 2×, and 4× the MIC. Bawcin’s residual antimicrobial activity against M. luteus was determined via spot-on-lawn assay as described above. The following samples were spotted for each assay: (1) protease combined with bawcin at each concentration, bawcin alone at each concentration, buffer alone, protease in buffer alone, ampicillin (positive control), and sterile water (negative control), where all solutions were incubated for 1 h at 37 °C prior to spotting except ampicillin and sterile water. Assays were performed in triplicate.

Another data set relates to trypsin. The description is as above. Format: in vitro ADME. The following applies: 1 mg/mL trypsin in 50 mM phosphate buffer pH 8, 1 h at 37 °C, bawcin at 1×, 2×, 4× the MIC, spot-on-lawn against M. luteus, triplicate. The procedure: as §1, §2
A further data set concerns the target T2, pepsin (Sus scrofa, UniProt P00791).
T2 construct: purchased Northwest Scientific
Described as above. The following applies: 1 mg/mL pepsin in 50 mM phosphate buffer pH 2, 1 h at 37 °C, bawcin at 1×, 4× the MIC (8, 16, 32 µM), spot-on-lawn against M. luteus, triplicate. It counts as in vitro ADME. How it is done:
as §1, §2

Another data set concerns the target T3, proteinase K (Parengyodontium album, UniProt P06873).
T3 construct: purchased Fisher Scientific
The description is as above. Format: in vitro ADME. The conditions noted are these: 1 mg/mL proteinase K in 50 mM phosphate buffer pH 8, 1 h at 37 °C, bawcin at 1×, 2×, 4× the MIC, spot-on-lawn against M. luteus, triplicate. The procedure:
as §1, §2

Another data set addresses T4, alpha-chymotrypsin (Bos taurus, UniProt P00766).
T4 construct: purchased Worthington
The description is as above. Format: in vitro ADME. The following applies: 1 mg/mL alpha-chymotrypsin in 50 mM phosphate buffer pH 8, 1 h at 37 °C, bawcin at 1×, 2×, 4× the MIC, spot-on-lawn against M. luteus, triplicate. How it is done:
as §1, §2

T1 sequence (P00784 134-345): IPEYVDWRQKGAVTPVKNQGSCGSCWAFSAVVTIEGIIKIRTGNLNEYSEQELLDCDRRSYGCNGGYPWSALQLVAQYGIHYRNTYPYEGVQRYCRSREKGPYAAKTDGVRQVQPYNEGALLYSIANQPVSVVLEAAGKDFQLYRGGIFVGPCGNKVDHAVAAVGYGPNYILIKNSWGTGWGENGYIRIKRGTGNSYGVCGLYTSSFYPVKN
T3 sequence (P06873 106-384): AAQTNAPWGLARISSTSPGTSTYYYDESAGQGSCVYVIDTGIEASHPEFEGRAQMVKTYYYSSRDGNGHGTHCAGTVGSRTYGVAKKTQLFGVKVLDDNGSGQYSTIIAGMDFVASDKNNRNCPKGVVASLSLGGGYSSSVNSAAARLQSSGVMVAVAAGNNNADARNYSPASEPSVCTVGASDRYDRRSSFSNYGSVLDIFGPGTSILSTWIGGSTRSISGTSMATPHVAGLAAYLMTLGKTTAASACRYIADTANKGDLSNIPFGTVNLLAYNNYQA
T2 sequence (P00791 60-385): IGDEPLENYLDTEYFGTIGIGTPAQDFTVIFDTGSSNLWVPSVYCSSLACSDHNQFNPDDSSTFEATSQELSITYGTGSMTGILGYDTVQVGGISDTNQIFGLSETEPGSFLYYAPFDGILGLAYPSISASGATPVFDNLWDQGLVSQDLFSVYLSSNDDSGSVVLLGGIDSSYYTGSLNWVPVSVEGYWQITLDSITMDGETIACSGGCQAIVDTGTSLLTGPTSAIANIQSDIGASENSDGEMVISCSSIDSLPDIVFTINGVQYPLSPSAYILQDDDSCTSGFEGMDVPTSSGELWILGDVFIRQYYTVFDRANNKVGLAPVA

With “MLSFAKLVARLSASKAKWAWNNKGKVVEWIKNGATFEWISNKIDQMMG [bawcin]”, the minimum inhibitory concentration (MIC) in [1] is listed as 8 µM; in data set [2], 4 µM; in data set [3] it was 4 µM; in data set [4] it was 32 µM; in data set [5], 8 µM; in [6], 8 µM. Further, the MIC was 16 µM in data set [7], 16 µM in [8] and 8 µM in data set [9]. The “Residual antimicrobial activity when combined with papain” value on papain (1 mg/mL papain in 50 mM phosphate buffer pH 6, 1 h at 37 °C, bawcin at 1×, 2×, 4× the MIC (8, 16, 32 µM)) is “retained its antimicrobial activity”. Moreover, the “Lowest bawcin concentration remaining active in combination with papain” value on papain (1 mg/mL papain, pH 6, 1 h at 37 °C, 32, 16, 8 µM tested) is given as 8 µM. Moreover, in the data set on trypsin, the “Residual antimicrobial activity in the presence of trypsin” value is recorded as “lost antimicrobial activity at all concentrations tested”. Also, the “Residual antimicrobial activity when combined with pepsin” value at pepsin is listed as “only at 4× the MIC (with HR)”. Moreover, the “Residual antimicrobial activity in the presence of proteinase K” value at proteinase K was “lost antimicrobial activity at all concentrations tested”. Also, the “Residual antimicrobial activity in the presence of alpha-chymotrypsin” value on alpha-chymotrypsin is listed as “lost antimicrobial activity at all concentrations tested”.

A word on the MIC: it is the least concentration at which growth counts as inhibited. Read a low MIC as a more susceptible organism.
